The melting point is the temperature, or range, at which the solid turns liquid.

Six compounds from patent publication US9670189B2, “Substituted condensed pyrimidine compounds” (GRÜNENTHAL GMBH, priority 2013, dated 2017) can be followed below.

Tested on in the first data set: not given
Assay: not given
Settings: not given
Regarding `COc1ccc(-c2nc3c(c(Oc4ccc(CC(=O)O)cc4)n2)CCC3)cc1Br` [Compound 14, 2-(4-(2-(3-Bromo-4-methoxyphenyl)-6,7-dihydro-5H-cyclopenta[d]pyrimidin-4-yloxy)phenyl)acetic acid], the melting point lay in the range of 263 to 264 °C.

The target of the next data set is T1, human PDE4B1 (Homo sapiens, UniProt Q07343).
T1 construct: host or cells: Sf9 cells
T1 sequence (Q07343 whole entry): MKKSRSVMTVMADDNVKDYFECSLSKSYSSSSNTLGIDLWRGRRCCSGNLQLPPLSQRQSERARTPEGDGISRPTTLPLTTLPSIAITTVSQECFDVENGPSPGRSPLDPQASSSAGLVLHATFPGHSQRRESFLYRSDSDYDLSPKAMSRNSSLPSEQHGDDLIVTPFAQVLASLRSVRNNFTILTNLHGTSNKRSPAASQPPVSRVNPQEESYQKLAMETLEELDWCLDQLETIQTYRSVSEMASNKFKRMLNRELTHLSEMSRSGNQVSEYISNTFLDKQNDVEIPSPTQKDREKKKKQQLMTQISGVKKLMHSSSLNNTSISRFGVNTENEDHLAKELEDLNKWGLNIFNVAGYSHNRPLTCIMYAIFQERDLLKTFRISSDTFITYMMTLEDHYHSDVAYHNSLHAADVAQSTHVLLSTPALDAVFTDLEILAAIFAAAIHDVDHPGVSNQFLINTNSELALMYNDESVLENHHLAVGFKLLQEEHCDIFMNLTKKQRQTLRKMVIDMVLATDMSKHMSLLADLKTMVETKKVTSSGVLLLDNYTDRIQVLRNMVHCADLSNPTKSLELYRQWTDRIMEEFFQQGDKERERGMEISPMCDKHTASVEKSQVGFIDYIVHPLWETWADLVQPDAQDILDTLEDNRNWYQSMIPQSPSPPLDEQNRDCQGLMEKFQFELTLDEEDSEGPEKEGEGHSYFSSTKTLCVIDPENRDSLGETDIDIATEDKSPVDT
The experiment in a line: cAMP HTRF assay to determine the activity of hPDE4B1. Type of data set: biochemical. The following applies: 1 μM test concentration; human recombinant PDE4B1, cAMP 40 nM; read-out: Inhibition at 1 μM test concentration [%] (Percentage inhibition of PDE4B). How it is done:
cAMP HTRF® Assay to Determine the Activity of hPDE4B1
The inhibiting effect of the compounds on the enzyme activity of human PDE4B1 was measured by the quantification of 5′-adenosine monophosphate (5′-AMP), which is formed from 3′,5′-adenosine monophosphate (cAMP). Human recombinant enzyme, expressed in Sf9 cells, and the HTRF (homogeneous time-resolved fluorescence) detection method were used in the assay.
The test compound or water (control) was mixed with the human recombinant PDE4B1 enzyme (4.8 U) in a buffer consisting of 44.4 mM tris-HCl, 5.28 mM MgCl2, 2.64 mM DTT and 0.044% Tween 20 (pH 7.8). After adding the cAMP enzyme substrate (final concentration 40 nM) the mixture was incubated for 30 minutes at room temperature. Then a fluorescence acceptor (Dye2 marked with cAMP), a fluorescence donor (anti-cAMP antibody marked with a europium cryptate) and the non-specific phosphodiesterase inhibitor IBMX (3-isobutyl-1-methylxanthine; final concentration 1 mM) were added. After 60 minutes the fluorescence transfer, which correlates with the amount of remaining cAMP, was measured with a microplate reader (Rubystar, BMG) at λex=337 nm, λem=620 nm and λem=665 nm. The enzyme activity was calculated from the quotient formed from the measured signal at 665 nm and that at 620 nm. The result was expressed as the percentage inhibition of enzyme activity of the control (without PDE4 inhibitor) (literature: N. Saldou et al., Comparison of recombinant human PDE4 isoforms: interaction with substrate and inhibitors, Cell. Signal. Vol. 10, No. 6, 427-440, 1998). The enzyme was omitted for measurement of the basal control.
As to `COc1ccc(-c2nc3c(c(Oc4ccc(CC(=O)O)cc4)n2)CCC3)cc1Br` [Compound 14, 2-(4-(2-(3-Bromo-4-methoxyphenyl)-6,7-dihydro-5H-cyclopenta[d]pyrimidin-4-yloxy)phenyl)acetic acid], the inhibition at 1 µM stood at 68%. Still for that read-out and setting: the figure for `O=C(O)Cc1ccc(Oc2nc(-c3ccc(O)c(Cl)c3)nc3c2CCC3)cc1` [Compound 13, 2-(4-(2-(3-Chloro-4-hydroxyphenyl)-6,7-dihydro-5H-cyclopenta[d]pyrimidin-4-yloxy)phenyl)acetic acid] is 72%; for `Cc1ccc(-c2nc3c(c(Oc4ccc(CC(=O)O)cc4)n2)CCC3)s1` [Compound 58, 2-(4-((2-(5-Methylthiophen-2-yl)-6,7-dihydro-5H-cyclopenta[d]pyrimidin-4-yl)oxy)phenyl)acetic acid] it is 65%; for `O=C(O)Cc1ccc(Oc2nc(-c3cnc(Cl)s3)nc3c2CCC3)cc1` [Compound 46, 2-(4-(2-(2-Chlorothiazol-5-yl)-6,7-dihydro-5H-cyclopenta[d]pyrimidin-4-yloxy)phenyl)acetic acid] it is 76%.

For the compound `O=C(O)Cc1ccc(Cc2nc(-c3ccc(Cl)s3)nc3c2CCC3)cc1` [Compound 9, 2-(4-((2-(5-Chlorothiophen-2-yl)-6,7-dihydro-5H-cyclopenta[d]pyrimidin-4-yl)methyl)phenyl)acetic acid], the inhibition at 1 µM is 75%. On the same count and under the same terms, as for `N#Cc1ccc(-c2nc3c(c(Oc4ccc(CC(=O)O)cc4)n2)CCC3)s1` [Compound 48, 2-(4-(2-(5-Cyanothiophen-2-yl)-6,7-dihydro-5H-cyclopenta[d]pyrimidin-4-yloxy)phenyl)acetic acid], the figure is 78%.
